According to patent publication US20120132797A1, “MEANS AND METHODS FOR DIAGNOSING THYROID DISORDERS” (BASF SE, priority 2009, published 2012):
Blank lines part the entries; values can stand above or below the molecule they belong to.

Test system: Wistar (Crl:WI(Han)) rats
Assay: Mass spectrometry-based plasma metabolite profiling of rats treated with known inducers of thyroid function impairment
Assay type: in vivo, rat
Conditions: ratio of group medians vs controls
How it was run: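 Rats aged 10-11 weeks, 5/sex/dose vs 10/sex controls, dosed at low and high levels; retro-orbital plasma taken under isoflurane on days 7, 14 and 28 after 16-20 h fast. Polar and non-polar fractions profiled by GC-MS (derivatised) and LC-MS/MS (MRM plus full scan), normalised to pool samples; Welch t-test by sex and day gives p-values and median ratios.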

[1] = female rats, fh7 (study day 7), Table 3
[2] = female rats, fh14 (study day 14), Table 3
[3] = female rats, fh28 (study day 28), Table 3
[4] = female rats, fh7 (study day 7), Table 1
[5] = female rats, fh14 (study day 14), Table 1
[6] = female rats, fh28 (study day 28), Table 1
[7] = male rats, mh7 (study day 7), Table 2
[8] = male rats, mh14 (study day 14), Table 2
[9] = male rats, mh28 (study day 28), Table 2

Compound: Cc1c[nH]nc1C.O=P(O)(O)O [3,4-Dimethylpyrazolphosphat]
Arachidonic acid (C20:cis[58,11,14]4) [1]: 1.36
Behenic acid (C22:0) [1]: 1.31
Cholesterol [1]: 1.24
Cysteine [1]: 0.78
Docosahexaenoic acid (C22:cis[4,7,10,13,16,19]6) [1]: 2.15
Dodecanol [1]: 1.06
Eicosanoic acid (C20:0) [1]: 1.14
Glycerol phosphate [1]: 1.29
Heptadecanoic acid (C17:0) [1]: 1.30
Linoleic acid (C18:cis[9,12]2) [1]: 1.29
Nervonic acid C24:(cis[15]1) [1]: 1.60
Palmitic acid (C16:0) [1]: 1.34
Sphingomyelin (d18:1, C16:0) [1]: 1.28
Stearic acid (C18:0) [1]: 1.30
Threonic acid [1]: 1.51
dihomo-gamma-Linolenic acid (C20:cis[8,11,14]3) [1]: 1.36
erythro-Sphingosine [1]: 1.40
gamma-Linolenic acid (C18:cis[6,9,12]3) [1]: 1.17
myo-Inositol-2-phosphate [1]: 1.26
threo-Sphingosine [1]: 1.27
Arachidonic acid (C20:cis[58,11,14]4) [2]: 1.75
Behenic acid (C22:0) [2]: 1.82
Cholesterol [2]: 1.73
Cysteine [2]: 1.29
Docosahexaenoic acid (C22:cis[4,7,10,13,16,19]6) [2]: 2.19
Dodecanol [2]: 1.17
Eicosanoic acid (C20:0) [2]: 1.61
Glycerol phosphate [2]: 1.69
Heptadecanoic acid (C17:0) [2]: 1.34
Linoleic acid (C18:cis[9,12]2) [2]: 1.29
Nervonic acid C24:(cis[15]1) [2]: 1.60
Palmitic acid (C16:0) [2]: 1.34
Sphingomyelin (d18:1, C16:0) [2]: 1.35
Stearic acid (C18:0) [2]: 1.71
Threonic acid [2]: 1.17
dihomo-gamma-Linolenic acid (C20:cis[8,11,14]3) [2]: 1.80
erythro-Sphingosine [2]: 1.90
gamma-Linolenic acid (C18:cis[6,9,12]3) [2]: 1.87
myo-Inositol-2-phosphate [2]: 1.78
threo-Sphingosine [2]: 1.72
Arachidonic acid (C20:cis[58,11,14]4) [3]: 1.67
Behenic acid (C22:0) [3]: 1.43
Cholesterol [3]: 1.69
Cysteine [3]: 1.00
Docosahexaenoic acid (C22:cis[4,7,10,13,16,19]6) [3]: 2.25
Dodecanol [3]: 1.26
Eicosanoic acid (C20:0) [3]: 1.38
Glycerol phosphate [3]: 1.55
Heptadecanoic acid (C17:0) [3]: 1.39
Linoleic acid (C18:cis[9,12]2) [3]: 1.44
Nervonic acid C24:(cis[15]1) [3]: 1.78
Palmitic acid (C16:0) [3]: 1.55
Sphingomyelin (d18:1, C16:0) [3]: 1.58
Stearic acid (C18:0) [3]: 1.62
Threonic acid [3]: 1.36
dihomo-gamma-Linolenic acid (C20:cis[8,11,14]3) [3]: 1.86
erythro-Sphingosine [3]: 1.54
gamma-Linolenic acid (C18:cis[6,9,12]3) [3]: 1.96
myo-Inositol-2-phosphate [3]: 1.91
threo-Sphingosine [3]: 1.58

5-O-Methylsphingosine [4]: 1.40
Asparagine [4]: 1.10
Behenic acid (C22:0) [4]: 1.27
Citrate [4]: 0.87
Docosahexaenoic acid (C22:cis[4,7,10,13,16]6) [4]: 1.25
Glycine [4]: 1.13
Ketoleucine [4]: 1.05
Lysophosphatidylcholine (C18:2) [4]: 1.07
Phosphatidylcholine (C16:1, C18:2) [4]: 1.49
Phosphatidylcholine (C18:2, C20:4) [4]: 1.20
Pyruvate [4]: 0.91
Tricosanoic acid (C23:0) [4]: 1.45
erythro-Sphingosine [4]: 1.46
threo-Sphingosine [4]: 1.24
Sphingomyelin (d18:1, C16:0) (female rats, fh7 (study day 7), Table 1, first listing): 1.01
Sphingomyelin (d18:1, C16:0) (female rats, fh7 (study day 7), Table 1, second listing): 1.26
5-O-Methylsphingosine [5]: 1.36
Asparagine [5]: 1.09
Behenic acid (C22:0) [5]: 1.14
Citrate [5]: 0.69
Docosahexaenoic acid (C22:cis[4,7,10,13,16]6) [5]: 1.14
Glycine [5]: 1.08
Ketoleucine [5]: 0.80
Lysophosphatidylcholine (C18:2) [5]: 1.31
Phosphatidylcholine (C16:1, C18:2) [5]: 1.37
Phosphatidylcholine (C18:2, C20:4) [5]: 1.17
Pyruvate [5]: 0.65
Tricosanoic acid (C23:0) [5]: 1.30
erythro-Sphingosine [5]: 1.28
threo-Sphingosine [5]: 1.29
Sphingomyelin (d18:1, C16:0) (female rats, fh14 (study day 14), Table 1, first listing): 1.46
Sphingomyelin (d18:1, C16:0) (female rats, fh14 (study day 14), Table 1, second listing): 1.33
5-O-Methylsphingosine [6]: 1.20
Asparagine [6]: 0.93
Behenic acid (C22:0) [6]: 1.23
Citrate [6]: 0.66
Docosahexaenoic acid (C22:cis[4,7,10,13,16]6) [6]: 0.84
Glycine [6]: 1.05
Ketoleucine [6]: 0.89
Lysophosphatidylcholine (C18:2) [6]: 1.26
Phosphatidylcholine (C16:1, C18:2) [6]: 1.09
Phosphatidylcholine (C18:2, C20:4) [6]: 1.17
Pyruvate [6]: 0.73
Tricosanoic acid (C23:0) [6]: 1.36
erythro-Sphingosine [6]: 1.24
threo-Sphingosine [6]: 1.34
Sphingomyelin (d18:1, C16:0) (female rats, fh28 (study day 28), Table 1, first listing): 1.62
Sphingomyelin (d18:1, C16:0) (female rats, fh28 (study day 28), Table 1, second listing): 1.29
3-O-Methylsphingosine [7]: 1.57
5-O-Methylsphingosine [7]: 1.50
14-Methyl-Pentadecanoic acid [7]: 0.98
17-Methyloctadecanoic acid [7]: 1.10
Arginine [7]: 1.09
Cholesterol [7]: 1.42
Citrate [7]: 0.90
Dihom-gamma-Linolenic acid (C20:cis[8,11,14]3) [7]: 1.02
Lignoceric acid (C24:0) [7]: 1.28
Phytosphingosine [7]: 1.11
Sphingomyelin (d18:1, C16:0) [7]: 1.35
Tricosanoic acid (C23:0) [7]: 1.28
alpha-Tocopherol [7]: 1.20
erythro-Sphingosine [7]: 1.46
threo-Sphingosine [7]: 1.33
Glutamate (male rats, mh7 (study day 7), Table 2, first listing): 0.78
Glutamate (male rats, mh7 (study day 7), Table 2, second listing): 1.03
3-O-Methylsphingosine [8]: 1.41
5-O-Methylsphingosine [8]: 1.38
14-Methyl-Pentadecanoic acid [8]: 0.86
17-Methyloctadecanoic acid [8]: 0.67
Arginine [8]: 1.10
Cholesterol [8]: 0.98
Citrate [8]: 0.73
Dihom-gamma-Linolenic acid (C20:cis[8,11,14]3) [8]: 1.33
Lignoceric acid (C24:0) [8]: 1.12
Phytosphingosine [8]: 1.07
Sphingomyelin (d18:1, C16:0) [8]: 1.35
Tricosanoic acid (C23:0) [8]: 1.10
alpha-Tocopherol [8]: 1.15
erythro-Sphingosine [8]: 1.30
threo-Sphingosine [8]: 1.23
Glutamate (male rats, mh14 (study day 14), Table 2, first listing): 0.78
Glutamate (male rats, mh14 (study day 14), Table 2, second listing): 0.70
3-O-Methylsphingosine [9]: 1.90
5-O-Methylsphingosine [9]: 1.82
14-Methyl-Pentadecanoic acid [9]: 0.64
17-Methyloctadecanoic acid [9]: 0.70
Arginine [9]: 1.35
Cholesterol [9]: 1.23
Citrate [9]: 0.64
Dihom-gamma-Linolenic acid (C20:cis[8,11,14]3) [9]: 1.50
Lignoceric acid (C24:0) [9]: 1.16
Phytosphingosine [9]: 1.20
Sphingomyelin (d18:1, C16:0) [9]: 1.71
Tricosanoic acid (C23:0) [9]: 1.55
alpha-Tocopherol [9]: 1.12
erythro-Sphingosine [9]: 1.47
threo-Sphingosine [9]: 1.52
Glutamate (male rats, mh28 (study day 28), Table 2, first listing): 0.65
Glutamate (male rats, mh28 (study day 28), Table 2, second listing): 0.49
Compound: CCCc1cc(=O)[nH]c(=S)[nH]1 [6-Propyl-2-thiouracil]
